Measurements as given in US7960352B2, “Anti-cancer activity of Androsace umbellata Merr. extract and contained triterpene saponin” (Sungkyunkwan University Foundation for Corporate …, priority 2005, dated 2011).
In brackets after ≈: the same amount, converted by molar mass.

Key:
A549 (lung cancer cells) = test: Inhibition of growth of tumor cells (SRB assay), A549; assay type: cell-based; conditions: 0.01-100 μg/mL, cultured 48 hours
Method: (§1) Cells were cultured in Dulbecco's modified Eagle's medium (hereunder referred to as DMEM) containing 5-10% fetal bovine serum and L-glutamine in an incubator of 37° C. and 5% CO2. Adherent cells were suspended using a trypsin-EDTA solution and isolated and collected for testing.
(§2) The cells were cultured on a 96-well plate, 5×10^3-10^4 cells each. After treating with the extract and the active ingredient at a concentration of 0, 0.01, 0.1, 1, 10 and 100 μg/mL, the cells were cultured for 48 hours. After culturing for […], the culture medium was removed from each well and 200 μL of 10% TCA (trichloroacetic acid) was added. The cells were fixed to the bottom of the plate by letting alone at 4° C. for 1 hour. After fixation, the plate was washed with distilled water for 5-6 times to remove the remaining TCA solution and then completely dried. To the plate was added 200 μL of a staining solution per each well, which was prepared by dissolving 0.4% SRB solution in 1% acetic acid solution. After 30 minutes' staining, the plate was washed with 1% acetic acid solution for 5-6 times to remove excess SRB. The plate was dried at room temperature and 200 μL of 10 mM trisma base solution (unbuffered) was added per each well. After 10 minutes' of shaking using a titer plate shaker to elute out the staining solution, light absorbance was measured at 540 nm using a microplate reader.

[1] = test system: HCT15 (colon cancer cells); test: Inhibition of growth of tumor cells (SRB assay), HCT15; assay type: cell-based; conditions: cultured 48 hours; for Inhibitory effect against growth of cancer cells IC50 HCT15: 0.01-100 μg/mL
Method: as §1, §2

[2] = test system: MCF7 (breast cancer cells); test: Inhibition of growth of tumor cells (SRB assay), MCF7; assay type: cell-based; conditions: 0.01-100 μg/mL, cultured 48 hours
Method: as §1, §2

SK-OV-3 (cancer cells) = test: Inhibition of growth of tumor cells (SRB assay), SK-OV-3; assay type: cell-based; conditions: Homo sapiens, SK-OV-3 cells, 0.01-100 μg/mL, cultured 48 hours, read-out: Inhibitory effect against growth of cancer cells IC50 SK-OV-3
Method: as §1, §2

[3] = test system: MDA-MB-231 (breast cancer cells); test: Inhibition of growth of tumor cells (SRB assay), MDA-MB-231; assay type: cell-based; conditions: MDA-MB-231 cells, 0.01-100 μg/mL, cultured 48 hours
Method: as §1, §2

[4] = test system: HeLa (uterine cancer cells); test: Inhibition of growth of tumor cells (SRB assay), HeLa; assay type: cell-based; conditions: 0.01-100 μg/mL, cultured 48 hours
Method: as §1, §2

[5] = test system: SK-OV-3 (uterine cancer cells); test: Inhibition of growth of tumor cells (SRB assay), SK-OV-3; assay type: cell-based; conditions: SK-OV-3 cells, 0.01-100 μg/mL, cultured 48 hours
Method: as §1, §2

mice [6] = test: Toxicity test, intraperitoneal injection to mice; assay type: in vivo; conditions: for Mice died: intraperitoneal, 20 mg/kg, 10 mice per group, observed 7 days; for Cause of the death of the mice: right after the intraperitoneal injection
Method: (§3) Toxicity test was performed as follows for the Androsace umbellata Merr. extract, fraction thereof and saxifragifolins B and D of the present invention.
(§4) Each of the Androsace umbellata Merr. extract, fraction thereof and saxifragifolins D and B was dissolved in 1% sodium carboxymethlycellulose and diluted with water. The solution was intraperitoneally injected to mice (10 per each group) at a dose of 0, 0.016, 0.8, 4, 20 and 100 mg/kg. […] No mouse died in the Androsace umbellata Merr. extract group. All the 10 mice of the 100 mg/kg Androsace umbellata Merr. fraction group died right after the administration and two died in the 20 mg/kg group. 3 mice died in each of the 20 mg/kg saxifragifolin B and saxifragifolin D groups. No more mice died until the 7th day. […] When the Androsace umbellata Merr. extract, fraction thereof and saxifragifolins D and B were dissolved in corn oil and orally administered at a dose of 1, 10 and 100 mg/kg, no mice died for 7 days.

mice [7] = test: Toxicity test, oral administration to mice; assay type: in vivo; conditions: orally, in corn oil, 1, 10 and 100 mg/kg, 7 days
Method: as §3, §4

Row | Compound | IC50 (A549 (lung cancer cells); Homo sapiens, read-out: Inhibitory effect against growth of cancer cells IC50 A549) [µg/mL] | IC50 ([1]; Homo sapiens, HCT-15, 0.01-100 μg/mL, read-out: Inhibitory effect against growth of cancer cells IC50 HCT15) [µg/mL] | IC50 ([2]; Homo sapiens, read-out: Inhibitory effect against growth of cancer cells IC50 MCF7) [µg/mL] | IC50 (SK-OV-3 (cancer cells)) [µg/mL] | IC50 ([3]; Homo sapiens, read-out: Inhibitory effect against growth of cancer cells IC50 MDA-MB-231) [µg/mL] | IC50 ([4]; Homo sapiens, read-out: Inhibitory effect against growth of cancer cells IC50 HeLa) [µg/mL] | Inhibitory effect against growth of cancer cells IC50 A549 (A549 (lung cancer cells)) [µg/mL] | Inhibitory effect against growth of cancer cells IC50 HCT15 [1] [µg/mL] | Inhibitory effect against growth of cancer cells IC50 MCF7 [2] [µg/mL] | Inhibitory effect against growth of cancer cells IC50 SK-OV-3 [5] [µg/mL] | Inhibitory effect against growth of cancer cells IC50 MDA-MB-231 [3] [µg/mL] | Inhibitory effect against growth of cancer cells IC50 HeLa [4] [µg/mL] | Mice died (mice [6]) [mice] | Cause of the death of the mice (mice [6]) | Mice died (mice [7])
1 | COc1cccc2c1C(=O)c1c(O)c3c(c(O)c1C2=O)C[C@@](O)(C(=O)CO)C[C@@H]3O[C@H]1C[C@H](N)[C@H](O)[C@H](C)O1 [Doxorubicin, reference compound] | 0.011 ± 0.01 (≈ 0.0202 µM) | 0.014 ± 0.02 (≈ 0.0258 µM) | 0.5 ± 0.02 (≈ 0.92 µM) | 0.77 ± 0.03 (≈ 1.42 µM) | 0.02 ± 0.01 (≈ 0.0368 µM) | 0.21 ± 0.01 (≈ 0.386 µM) | – | – | – | – | – | – | – | – | –
2 | cyclamiretin A 3-O-{β-D-glucopyranosyl-(1→4)-β-D-glucopyranosyl-(1→2)-β-D-xylopyranosyl-(1→2)-β-D-glucopyranosyl-(1→4)-α-L-arabinopyranoside} [Saxifragifolin D] | – | – | – | – | – | – | 0.016 ± 0.01 | 0.558 ± 0.24 | 3.23 ± 0.10 | 6.36 ± 0.12 | 1.32 ± 0.03 | 0.98 ± 0.05 | 3 | hemolysis of red blood cells | no mice died
3 | cyclamiretin A 3-O-{β-D-xylopyranosyl-(1→2)-β-D-glucopyranosyl-(1→4)-β-D-glucopyranosyl-(1→2)-α-L-arabinopyranoside} [Saxifragifolin B] | – | – | – | – | – | – | 0.036 ± 0.02 | 0.183 ± 0.17 | 6.88 ± 0.13 | 8.39 ± 0.23 | 3.02 ± 0.02 | 1.22 ± 0.04 | 3 | hemolysis of red blood cells | no mice died
